{"source": "patent US20130143829A1", "about": "“Topical Combination Formulations of Macrocyclic Lactones with Synthetic Pyrethroids” (priority 2011, published 2013)", "origin": "cited, not measured here", "settings": "in vivo"}
{"substance": "eprinomectin", "values": [{"measurement": "Milk to plasma partition ratio", "result": "~0.2"}]}
